The values that follow come from patent publication US11026943B2, “Aminoquinoline derivatives and uses thereof” (UNIVERSITY OF DELHI, priority 2012, dated 2021).

The subject of data set [1] is CQ-sensitive (D6 clone) strain of P. falciparum. Description: In vitro antimalarial activity, CQ-sensitive strain. It counts as cell-based, Plasmodium falciparum. The following applies: for IC50: Plasmodium falciparum, CQ-sensitive D6 clone, read-out: P. falciparum (D6 Clone) IC50; for P. falciparum (D6 Clone) S.I.: selectivity index = IC50 cytotoxicity to Vero cells / IC50 antimalarial; for selectivity index of antimalarial activity: ratio of IC50 for cytotoxicity to Vero cells and IC50 for antimalarial activity; for activity fold higher than artemisinin: CQ-sensitive strain. From the text: (§1) Med. Chem. 2005, 13, 4458; Khan, I. A. Lipids 2004, 37, 169].

The subject of data set [2] is CQ-resistant (W2 clone) strain of P. falciparum. Kind of data set: In vitro antimalarial activity, CQ-resistant strain. Format: cell-based, Plasmodium falciparum. The following applies: for IC50: Plasmodium falciparum, CQ-resistant W2 clone, read-out: P. falciparum (W2 Clone) IC50; for P. falciparum (W2 Clone) S.I.: selectivity index = IC50 cytotoxicity to Vero cells / IC50 antimalarial.
Description: as §1

For data set [3], the system named is VERO cells. Description: In vitro cytotoxicity to mammalian cells, VERO. The following applies: for IC50: Chlorocebus sabaeus, Vero, in vitro cytotoxicity to mammalian cells; for toxicity to cell lines: all the three cell lines (VERO, LLC-PK-1, and HepG2). It counts as cell-based.
Description: as §1

Data set [4] concerns LLC-PK-1 cells. Kind of data set: In vitro cytotoxicity to mammalian cells, LLC-PK-1. Format: cell-based. The following applies: Sus scrofa, LLC-PK1.
Description: as §1

Data set [5] relates to HepG2 cells. Description: In vitro cytotoxicity to mammalian cells, HepG2. It counts as cell-based. The following applies: Homo sapiens.
Description: as §1

For data set [6], the system named is parasitemia. Kind of data set: In-vivo antimalarial activity in mice. The following applies: mice; for parasitemia suppression / % Parasitemia suppression Day 5: day 5; for parasitemia suppression / survival rate / apparent toxicity: 30 mg/kg for 3 days post infection; for survival rate / Survival (animals that survived day 28/total animals in group): day 28; for Cure (number of mice without parasitemia till day 28 post-infection) / MST (mean survival time) / Remarks (toxicity) / % Parasitemia suppression Day 5 / % Parasitemia suppression Day 7 / Survival (animals that survived day 28/total animals in group) / Day of Death: PO; for Day of Death: per animal.

Where [7] appears, read: 3.3 mg/kg × 3 days post-infection.
The mark [8] stands for this setting: 10 mg/kg × 3 days post-infection.
Where [9] appears, read: 30 mg/kg × 3 days post-infection.

Take `Cc1cc(NCCNc2ccnc3cc(Cl)ccc23)nc(N2CCCCC2)n1` [12a, N-(7-chloro-quinolin-4-yl)-N′-(6-methyl-2-piperidin-1-yl-pyrimidin-4-yl)-ethane-1,2-diamine]: the melting point was 177 to 179 °C.

Compound `Cc1cc(NCCCCNc2ccnc3cc(Cl)ccc23)nc(N2CCCCC2)n1` [12c, N-(7-Chloro-quinolin-4-yl)-N′-(6-methyl-2-piperidin-1-yl-pyrimidin-4-yl)-butane-1,4-diamine] displayed a melting point of 187 to 189 °C. Further, in data set [1], the IC50 is 21 nM and the “P. falciparum (D6 Clone) S.I.” value was “(>2857)”. In addition, in data set [2], the IC50 came to 82 nM and the “P. falciparum (W2 Clone) S.I.” value is on record as “(>730)”. Moreover, the IC50 in data set [3] was more than 60 µM. The 50% inhibitory concentration (IC50) in data set [4] was more than 60 µM. Besides, the IC50 in data set [5] was more than 60 µM.

In turn, `Cc1cc(NCCCCCCNc2ccnc3cc(Cl)ccc23)nc(N2CCCCC2)n1` [12d, N-(7-Chloro-quinolin-4-yl)-N′-(6-methyl-2-piperidin-1-yl-pyrimidin-4-yl)-hexane-1,6-diamine] showed a melting point of 97 to 99 °C. Besides, in data set [1], the IC50 worked out at 66 nM, the “selectivity index of antimalarial activity” value is recorded as “considerably high” and the “P. falciparum (D6 Clone) S.I.” value worked out at 142.4. Further, in data set [2], the half-inhibitory concentration (IC50) is 128 nM and the “P. falciparum (W2 Clone) S.I.” value is given as 73.4. Besides, in data set [3], the IC50 was found to be 9.4 µM and the “toxicity to cell lines” value is recorded as “showed toxicity”. In data set [4], this compound gave an IC50 of less than 6.7 µM. In data set [5], this compound displayed a 50% inhibitory concentration (IC50) of less than 6.7 µM.

Take `Cc1cc(NCCNc2ccnc3cc(Cl)ccc23)nc(N2CCOCC2)n1` [12e, N-(7-Chloro-quinolin-4-yl)-N′-(6-methyl-2-morpholin-4-yl-pyrimidin-4-yl)-ethane-1,2-diamine]: the melting point is 165 to 167 °C. In data set [1], the IC50 was found to be 25 nM and the “P. falciparum (D6 Clone) S.I.” value was “(>2400)”. Moreover, in data set [2], the 50% inhibitory concentration (IC50) was determined as 120 nM and the “P. falciparum (W2 Clone) S.I.” value was “(>500)”. Also, the 50% inhibitory concentration (IC50) in data set [3] is more than 60 µM. In data set [4], the IC50 was more than 60 µM. The same compound gave an IC50 in data set [5] of more than 60 µM.

For `Cc1cc(NCCCNc2ccnc3cc(Cl)ccc23)nc(N2CCOCC2)n1` [12f, N-(7-Chloro-quinolin-4-yl)-N′-(6-methyl-2-morpholin-4-yl-pyrimidin-4-yl)-propane-1,3-diamine], the melting point was 165 to 167 °C. For the same compound, in data set [1], the 50% inhibitory concentration (IC50) was 22 nM and the “P. falciparum (D6 Clone) S.I.” value is listed as “(>2727)”. For the same compound, in data set [2], the 50% inhibitory concentration (IC50) worked out at 58 nM and the “P. falciparum (W2 Clone) S.I.” value was “(>1034)”. This compound also registered an IC50 in data set [3] of more than 60 µM. In data set [4], this compound yielded an IC50 of 35.1 µM. The compound further registered an IC50 in data set [5] of 26.1 µM.

Turning to `Cc1cc(NCCCCNc2ccnc3cc(Cl)ccc23)nc(N2CCOCC2)n1` [12g, N-(7-Chloro-quinolin-4-yl)-N′-(6-methyl-2-morpholin-4-yl-pyrimidin-4-yl)-butane-1,4-diamine], the melting point lay in the range of 214 to 216 °C.

`Cc1cc(NCCCCCCNc2ccnc3cc(Cl)ccc23)nc(N2CCOCC2)n1` [12h, N-(7-Chloro-quinolin-4-yl)-N′-(6-methyl-2-morpholin-4-yl-pyrimidin-4-yl)-hexane-1,6-diamine] displayed a melting point of 107 to 109 °C. Further, in data set [1], the 50% inhibitory concentration (IC50) was 41 nM, the “selectivity index of antimalarial activity” value is on record as “considerably high” and the “P. falciparum (D6 Clone) S.I.” value was determined as 417.0. Also, in data set [2], the IC50 is 120 nM and the “P. falciparum (W2 Clone) S.I.” value came out at 142.5. In data set [3], half-maximal inhibition (IC50) was put at 17.1 µM and the “toxicity to cell lines” value is on record as “showed toxicity”. In addition, the 50% inhibitory concentration (IC50) in data set [4] stood at 9.8 µM. In data set [5], the half-inhibitory concentration (IC50) is less than 6.7 µM.

For the compound `Cc1cc(NCCNc2ccnc3cc(Cl)ccc23)nc(N2CCN(C)CC2)n1` [12i, N-(7-Chloro-quinolin-4-yl)-N′-[6-methyl-2-(4-methyl-piperazin-1-yl)-pyrimidin-4-yl]-ethane-1,2-diamine], in data set [6], the parasitemia suppression is given as 100%, the survival rate was 5/5 and the apparent toxicity result was “No apparent toxicity”. In addition, in data set [6] (setting [7]), the “Cure (number of mice without parasitemia till day 28 post-infection)” value was 0/5, the “MST (mean survival time)” value came out at 19.2 days, the “Remarks (toxicity)” value is recorded as “No apparent” and the “% Parasitemia suppression Day 5” value came to 23.52%. For the same compound, in data set [6] (setting [7]), the “% Parasitemia suppression Day 7” value is given as 35.21%, the “Survival (animals that survived day 28/total animals in group)” value is 1/5 and the “Day of Death” value is 21/28/21/13/13. Besides, in data set [6] (setting [8]), the “Cure (number of mice without parasitemia till day 28 post-infection)” value is on record as 0/5, the “MST (mean survival time)” value turned out to be 21.4 days, the “Remarks (toxicity)” value is “No apparent” and the “% Parasitemia suppression Day 5” value worked out at 97.03%. In data set [6] (setting [8]), the “% Parasitemia suppression Day 7” value was 2.03%, the “Survival (animals that survived day 28/total animals in group)” value is reported as 0/5 and the “Day of Death” value is listed as 21/22/22/21/21. In addition, in data set [6] (setting [9]), the “Cure (number of mice without parasitemia till day 28 post-infection)” value is 4/5, the “MST (mean survival time)” value is reported as 28 days, the “Remarks (toxicity)” value was “No apparent” and the “% Parasitemia suppression Day 5” value worked out at 100.00%. In data set [6] (setting [9]), the “% Parasitemia suppression Day 7” value is reported as 100.00%, the “Survival (animals that survived day 28/total animals in group)” value is reported as 5/5 and the “Day of Death” value is reported as 28/28/28/28/28. Further, in data set [1], the “activity fold higher than artemisinin” value amounted to 2 fold, the half-inhibitory concentration (IC50) was 6 nM and the “P. falciparum (D6 Clone) S.I.” value is “(>10000)”. Further, in data set [2], the concentration for half-maximal inhibition (IC50) is 46 nM and the “P. falciparum (W2 Clone) S.I.” value was “(>1304)”. In data set [3], this compound yielded an IC50 of more than 60 µM. This compound yielded a half-maximal inhibitory concentration (IC50) in data set [4] of more than 60 µM. Further, the IC50 in data set [5] is more than 60 µM.

Compound `Cc1cc(NCCCNc2ccnc3cc(Cl)ccc23)nc(N2CCN(C)CC2)n1` [12j, N-(7-Chloro-quinolin-4-yl)-N′-[6-methyl-2-(4-methyl-piperazin-1-yl)-pyrimidin-4-yl]-propane-1,3-diamine] yielded a melting point of 176 to 178 °C. For the same compound, in data set [1], the “activity fold higher than artemisinin” value stood at 2 fold, the IC50 was found to be 7 nM and the “P. falciparum (D6 Clone) S.I.” value is recorded as “(>8571)”. In addition, in data set [2], the half-inhibitory concentration (IC50) was 63 nM and the “P. falciparum (W2 Clone) S.I.” value was “(>952)”. This compound yielded a half-inhibitory concentration (IC50) in data set [3] of more than 60 µM. This compound gave a half-maximal inhibitory concentration (IC50) in data set [4] of 35.2 µM. In data set [5], this compound gave an IC50 of 25.8 µM.

Turning to `CCN1CCN(c2nc(C)cc(NCCCNc3ccnc4cc(Cl)ccc34)n2)CC1` [12m, N-(7-Chloro-quinolin-4-yl)-N′-[2-(4-ethyl-piperazin-1-yl)-6-methyl-pyrimidin-4-yl]-propane-1,3-diamine], in data set [6], the parasitemia suppression stood at 100%, the survival rate is recorded as 4/5 and the apparent toxicity result was “No apparent toxicity”. In data set [6] (setting [7]), the “Cure (number of mice without parasitemia till day 28 post-infection)” value is given as 0/5, the “MST (mean survival time)” value is given as 20.2 days, the “Remarks (toxicity)” value is given as “No apparent” and the “% Parasitemia suppression Day 5” value turned out to be 20.12%. Further, in data set [6] (setting [7]), the “% Parasitemia suppression Day 7” value is given as 19.09%, the “Survival (animals that survived day 28/total animals in group)” value is given as 0/5 and the “Day of Death” value is reported as 17/21/21/21/21. For the same compound, in data set [6] (setting [8]), the “Cure (number of mice without parasitemia till day 28 post-infection)” value was 0/5, the “MST (mean survival time)” value came to 15.2 days, the “Remarks (toxicity)” value was “No apparent” and the “% Parasitemia suppression Day 5” value was determined as 73.89%. In data set [6] (setting [8]), the “% Parasitemia suppression Day 7” value is 27.14%, the “Survival (animals that survived day 28/total animals in group)” value is reported as 0/5 and the “Day of Death” value is given as 7/21/20/7/21. Besides, in data set [6] (setting [9]), the “Cure (number of mice without parasitemia till day 28 post-infection)” value is listed as 1/5, the “MST (mean survival time)” value is reported as 27.2 days, the “Remarks (toxicity)” value is given as “No apparent” and the “% Parasitemia suppression Day 5” value came out at 100.00%. For the same compound, in data set [6] (setting [9]), the “% Parasitemia suppression Day 7” value worked out at 100.00%, the “Survival (animals that survived day 28/total animals in group)” value was 4/5 and the “Day of Death” value was 28/28/28/28/24. In data set [1], the “activity fold higher than artemisinin” value amounted to 2 fold, the half-inhibitory concentration (IC50) stood at 6 nM and the “P. falciparum (D6 Clone) S.I.” value is recorded as “(>10000)”. For the same compound, in data set [2], the IC50 amounted to 61 nM and the “P. falciparum (W2 Clone) S.I.” value is “(>983)”. The same compound returned an IC50 in data set [3] of more than 60 µM. Further, the IC50 in data set [4] was more than 60 µM. In data set [5], the IC50 was more than 60 µM.
